{"source": "patent US4189349A", "about": "“α,δ-Diaminoacid and its lactam” (Rhone-Poulenc Industries, priority 1977, dated 1980)", "key": {"[1]": {"assay": "Solubility (French Pharmacopoeia terms / in water)", "format": "physicochemical", "procedure": "32232 RP and 35391 RP are of particular interest because of their activity on fungi and yeasts. 32232 RP, in the form of the internal salt, is characterised by the following physical properties:\nSolubility: 35391 RP is soluble in water at the rate of about 10 mg/cc."}, "[2]": {"assay": "Potentiometric titration of an aqueous solution", "format": "physicochemical", "conditions": "water", "from_the_text": "The potentiometric equivalent is about 390.\nThe potentiometric equivalent is about 400.\nThe potentiometric equivalent is about 370."}, "Aspergillus niger": {"test_system": "Aspergillus niger", "assay": "Anti-fungal activity in vitro by dilution method", "format": "cell-based", "conditions": "95 to 100% inhibition, read-out: Minimum active concentration (AC 95-100)", "procedure": "(§1) Anti-fungal activity in vitro: The anti-fungal activity of 32232 RP and of 35391 RP towards a certain number of fungi has been determined by one of the dilution methods usually employed for this purpose. For each fungus, the smallest concentration of active substance which, under defined conditions, causes 95 to 100% inhibition of the fungus (AC 95-100) was determined. The results of the various determinations are summarised in Table III below, where the minimum active concentrations are expressed in micrograms of substance per cc. of test medium."}, "Aspergillus fumigatus": {"test_system": "Aspergillus fumigatus", "assay": "Anti-fungal activity in vitro by dilution method", "format": "cell-based", "conditions": "95 to 100% inhibition, read-out: Minimum active concentration (AC 95-100)", "procedure": "as §1"}, "[3]": {"test_system": "Saccharomyces ellipsoideus", "assay": "Anti-fungal activity in vitro by dilution method", "format": "cell-based", "conditions": "95 to 100% inhibition, read-out: Minimum active concentration (AC 95-100)", "procedure": "as §1"}, "[4]": {"test_system": "Trichophyton mentagrophytes", "assay": "Anti-fungal activity in vitro by dilution method", "format": "cell-based", "conditions": "95 to 100% inhibition, read-out: Minimum active concentration (AC 95-100)", "procedure": "as §1"}, "Candida albicans Hi 7": {"test_system": "Candida albicans Hi 7", "assay": "Anti-fungal activity in vitro by dilution method", "format": "cell-based", "conditions": "HI7, 95 to 100% inhibition, read-out: Minimum active concentration (AC 95-100)", "procedure": "as §1"}, "Penicillium digitatum": {"test_system": "Penicillium digitatum", "assay": "Anti-fungal activity in vitro by dilution method", "format": "cell-based", "conditions": "95 to 100% inhibition, read-out: Minimum active concentration (AC 95-100)", "procedure": "as §1"}, "Microsporum canis": {"test_system": "Microsporum canis", "assay": "Anti-fungal activity in vitro by dilution method", "format": "cell-based", "conditions": "95 to 100% inhibition, read-out: Minimum active concentration (AC 95-100)", "procedure": "as §1"}, "Rhizopus nigricans": {"test_system": "Rhizopus nigricans", "assay": "Anti-fungal activity in vitro by dilution method", "format": "cell-based", "conditions": "Rhizopus stolonifer, 95 to 100% inhibition, read-out: Minimum active concentration (AC 95-100)", "procedure": "as §1"}, "Candida albicans Pa 1": {"test_system": "Candida albicans Pa 1", "assay": "Anti-fungal activity in vitro by dilution method", "format": "cell-based", "conditions": "PA1, 95 to 100% inhibition, read-out: Minimum active concentration (AC 95-100)", "procedure": "as §1"}, "Hansenula anomala": {"test_system": "Hansenula anomala", "assay": "Anti-fungal activity in vitro by dilution method", "format": "cell-based", "conditions": "95 to 100% inhibition, read-out: Minimum active concentration (AC 95-100)", "procedure": "as §1"}, "Botrytis cinerea": {"test_system": "Botrytis cinerea", "assay": "Anti-fungal activity in vitro by dilution method", "format": "cell-based", "conditions": "95 to 100% inhibition, read-out: Minimum active concentration (AC 95-100)", "procedure": "as §1"}, "Mucor corymbifer": {"test_system": "Mucor corymbifer", "assay": "Anti-fungal activity in vitro by dilution method", "format": "cell-based", "conditions": "Lichtheimia corymbifera, 95 to 100% inhibition, read-out: Minimum active concentration (AC 95-100)", "procedure": "as §1"}, "Candida krusei IP 208": {"test_system": "Candida krusei IP 208", "assay": "Anti-fungal activity in vitro by dilution method", "format": "cell-based", "conditions": "Pichia kudriavzevii, IP208, 95 to 100% inhibition, read-out: Minimum active concentration (AC 95-100)", "procedure": "as §1"}, "Fusarium oxysporum": {"test_system": "Fusarium oxysporum", "assay": "Anti-fungal activity in vitro by dilution method", "format": "cell-based", "conditions": "95 to 100% inhibition, read-out: Minimum active concentration (AC 95-100)", "procedure": "as §1"}, "[5]": {"assay": "Anti-fungal activity in vitro by dilution method", "format": "cell-based", "conditions": "Trichophyton rubrum; 95 to 100% inhibition; Microsporum rubrum; read-out: Minimum active concentration (AC 95-100)", "procedure": "as §1"}, "Blastomyces dermatitidis": {"test_system": "Blastomyces dermatitidis", "assay": "Anti-fungal activity in vitro by dilution method", "format": "cell-based", "conditions": "95 to 100% inhibition, read-out: Minimum active concentration (AC 95-100)", "procedure": "as §1"}, "Saccharomyces cerevisiae": {"test_system": "Saccharomyces cerevisiae", "assay": "Anti-fungal activity in vitro by dilution method", "format": "cell-based", "conditions": "95 to 100% inhibition, read-out: Minimum active concentration (AC 95-100)", "procedure": "as §1"}, "Candida albicans IP 200": {"test_system": "Candida albicans IP 200", "assay": "Anti-fungal activity in vitro by dilution method", "format": "cell-based", "conditions": "IP200, 95 to 100% inhibition, read-out: Minimum active concentration (AC 95-100)", "procedure": "as §1"}, "[6]": {"test_system": "Saccharomyces pastorianus", "assay": "Anti-fungal activity in vitro by dilution method", "format": "cell-based", "conditions": "95 to 100% inhibition, read-out: Minimum active concentration (AC 95-100)", "procedure": "as §1"}, "Epidermophyton floccosum": {"test_system": "Epidermophyton floccosum", "assay": "Anti-fungal activity in vitro by dilution method", "format": "cell-based", "conditions": "95 to 100% inhibition, read-out: Minimum active concentration (AC 95-100)", "procedure": "as §1"}, "bacteria": {"test_system": "bacteria", "assay": "Bacteriostatic activity towards bacteria", "format": "cell-based"}, "Candida albicans": {"test_system": "Candida albicans", "assay": "Anti-fungal activity in vivo, generalised candidosis in mice", "set-up": "species or system Candida albicans in mice", "conditions": "orally or subcutaneously, between 25 mg/kg and 200 mg/kg per day for 4 consecutive days"}, "mice": {"test_system": "mice", "assay": "Toxicity in mice", "conditions": "mouse, in vivo, 1000 mg/kg"}, "Toxicity in mice": {"assay": "Toxicity in mice", "conditions": "mouse, in vivo; mice, oral; read-out: 50% lethal dose (LD50)"}, "[7]": {"conditions": "0.1M hydrochloric acid, read-out: apparent pKa of basic group"}}, "note": "Like-named read-outs stand apart in the source and are kept apart here."}
{"smiles": "Nc1ncnc2c1ncn2C1OC(CC2CCC(N)C(=O)N2)C(O)C1O", "note": "(stereo not drawn) [35391 RP]", "values": [{"measurement": "Solubility", "setting": "[1]; in water, read-out: Solubility", "value": "~10000", "unit": "µg/mL"}, {"measurement": "pKa", "setting": "[2]; [7]", "value": 7.7}, {"measurement": "MIC", "setting": "Aspergillus niger", "value": "> 500", "unit": "µg/mL"}, {"measurement": "MIC", "setting": "Aspergillus fumigatus", "value": "> 500", "unit": "µg/mL"}, {"measurement": "MIC", "setting": "[3]", "value": 15, "unit": "µg/mL"}, {"measurement": "MIC", "setting": "[4]", "value": 350, "unit": "µg/mL"}, {"measurement": "MIC", "setting": "Candida albicans Hi 7", "value": 75, "unit": "µg/mL"}, {"measurement": "MIC", "setting": "Penicillium digitatum", "value": 25, "unit": "µg/mL"}, {"measurement": "MIC", "setting": "Microsporum canis", "value": 300, "unit": "µg/mL"}, {"measurement": "MIC", "setting": "Rhizopus nigricans", "value": "> 500", "unit": "µg/mL"}, {"measurement": "MIC", "setting": "Candida albicans Pa 1", "value": 40, "unit": "µg/mL"}, {"measurement": "MIC", "setting": "Hansenula anomala", "value": 35, "unit": "µg/mL"}, {"measurement": "MIC", "setting": "Botrytis cinerea", "value": "> 500", "unit": "µg/mL"}, {"measurement": "MIC", "setting": "Mucor corymbifer", "value": "> 500", "unit": "µg/mL"}, {"measurement": "MIC", "setting": "Candida krusei IP 208", "value": 60, "unit": "µg/mL"}, {"measurement": "MIC", "setting": "Fusarium oxysporum", "value": "> 500", "unit": "µg/mL"}, {"measurement": "MIC", "setting": "[5]", "value": 300, "unit": "µg/mL"}, {"measurement": "MIC", "setting": "Blastomyces dermatitidis", "value": 60, "unit": "µg/mL"}, {"measurement": "MIC", "setting": "Saccharomyces cerevisiae", "value": 10, "unit": "µg/mL"}, {"measurement": "MIC", "setting": "Candida albicans IP 200", "value": 70, "unit": "µg/mL"}, {"measurement": "MIC", "setting": "[6]", "value": 7, "unit": "µg/mL"}, {"measurement": "MIC", "setting": "Epidermophyton floccosum", "value": 250, "unit": "µg/mL"}, {"measurement": "bacteriostatic activity towards bacteria", "setting": "bacteria", "value": "generally devoid of bacteriostatic activity"}, {"measurement": "Anti-fungal activity in vivo against generalised candidosis", "setting": "Candida albicans", "value": "particularly active"}, {"measurement": "Toxicity", "setting": "mice", "value": "non-toxic"}]}
{"smiles": "Nc1ncnc2c1ncn2C1OC(CC(N)CCC(N)C(=O)O)C(O)C1O", "note": "(stereo not drawn) [32232 RP]", "values": [{"measurement": "Solubility", "setting": "[1]; in acetone, internal salt, French Pharmacopoeia", "value": "virtually insoluble"}, {"measurement": "Solubility", "setting": "[1]; in dimethylformamide, internal salt, French Pharmacopoeia", "value": "very slightly soluble"}, {"measurement": "Solubility", "setting": "[1]; in methanol, internal salt, French Pharmacopoeia", "value": "very slightly soluble"}, {"measurement": "Solubility", "setting": "[1]; in water, internal salt, French Pharmacopoeia", "value": "easily soluble"}, {"measurement": "pKa", "setting": "[2]; [7]", "value": 8.1}, {"measurement": "pKa", "setting": "[2]; 0.1M sodium hydroxide, read-out: apparent pKa of weak acid group", "value": 9.8}, {"measurement": "MIC", "setting": "Aspergillus niger", "value": "> 500", "unit": "µg/mL"}, {"measurement": "MIC", "setting": "Aspergillus fumigatus", "value": "> 500", "unit": "µg/mL"}, {"measurement": "MIC", "setting": "[3]", "value": 0.9, "unit": "µg/mL"}, {"measurement": "MIC", "setting": "[4]", "value": "> 500", "unit": "µg/mL"}, {"measurement": "MIC", "setting": "Candida albicans Hi 7", "value": 5, "unit": "µg/mL"}, {"measurement": "MIC", "setting": "Penicillium digitatum", "value": 15, "unit": "µg/mL"}, {"measurement": "MIC", "setting": "Microsporum canis", "value": "> 500", "unit": "µg/mL"}, {"measurement": "MIC", "setting": "Rhizopus nigricans", "value": "> 500", "unit": "µg/mL"}, {"measurement": "MIC", "setting": "Candida albicans Pa 1", "value": 3, "unit": "µg/mL"}, {"measurement": "MIC", "setting": "Hansenula anomala", "value": 2, "unit": "µg/mL"}, {"measurement": "MIC", "setting": "Botrytis cinerea", "value": "> 500", "unit": "µg/mL"}, {"measurement": "MIC", "setting": "Mucor corymbifer", "value": "> 500", "unit": "µg/mL"}, {"measurement": "MIC", "setting": "Candida krusei IP 208", "value": 4, "unit": "µg/mL"}, {"measurement": "MIC", "setting": "Fusarium oxysporum", "value": "> 500", "unit": "µg/mL"}, {"measurement": "MIC", "setting": "[5]", "value": "> 500", "unit": "µg/mL"}, {"measurement": "MIC", "setting": "Blastomyces dermatitidis", "value": 5, "unit": "µg/mL"}, {"measurement": "MIC", "setting": "Saccharomyces cerevisiae", "value": 0.3, "unit": "µg/mL"}, {"measurement": "MIC", "setting": "Candida albicans IP 200", "value": 5, "unit": "µg/mL"}, {"measurement": "MIC", "setting": "[6]", "value": 0.3, "unit": "µg/mL"}, {"measurement": "MIC", "setting": "Epidermophyton floccosum", "value": "> 500", "unit": "µg/mL"}, {"measurement": "bacteriostatic activity towards bacteria", "setting": "bacteria", "value": "generally devoid of bacteriostatic activity"}, {"measurement": "Anti-fungal activity in vivo against generalised candidosis", "setting": "Candida albicans", "value": "particularly active"}, {"measurement": "LD50", "setting": "Toxicity in mice", "value": "> 1000", "unit": "mg/kg"}]}
